The structures appear in SMILES notation. Like-named read-outs stand apart in the source and are kept apart here.

In test [1] the target is T1, avidin (AV) (Gallus gallus, UniProt P02701).
T1 construct: purchased Calbiochem (La Jolla, CA)
The experiment in a line: Relaxation kinetics of unlabeled biotin reacting with the AV-HABA complex. The test is classed as binding. The note with it: pH 8. The protocol: (§1) All of the following protein concentrations are presented on a binding site basis, thus in the case of the HABA association reactions for AV were measured at 23.0 ± 0.1°C with a concentration of 87 μM HABA and 7.7 μM AV. The AV-HABA relaxation reactions were conducted with a preformed AV-HABA complex made up of 200 μM HABA and 10 μM AV, flowed against varying amounts of B7 from 100 μM up to 4000 μM for a [HABA]/[B7] ratio that ranged from 0.05 to 2.
The relaxation experiments were prepared at concentrations in which HABA occupies all sites (AV-HABA4). Biotin replaces HABA relative to the koff of the dye as shown for the first step (Eq 1) and then repeated for all sites. Having greater affinity, B7 occupies all sites at the end of the reaction and the measured kon is related to the affinities of the ligand bound protein.
The reaction is monitored by the HABA absorbance changes at 500 nm as it is replaced by unlabeled B7; yielding the relaxation constant of the reaction (Relaxation, Eq 2) which contains information of the B7 association rate constant of the open binding site, k1AV−HABA3 to form a full saturated complex (AV-HABA4) and the dissociation rate of that full complex, k−1AV−HABA4 , to yield a complex with three HABA molecules (AV-HABA3). In the subsequent steps, B7 replaces HABA as the ligand but the release of HABA creates an unoccupied site that remains in the same state. In summary, the experiment was designed to acquire the pseudo-first order association rate constant of B7 binding ( konB ) to the solely free binding site in a complex occupied by three HABA molecules (AV-HABA3).
The reciprocal of the relaxation constant (1/Relaxation) is plotted vs. the [HABA]/[B] concentration ratio (Eq 3) allowing to calculate: k−1AV−HABA4 and k1AV−HABA3 by solving for the intercept ( 1/k−1AV−HABA4 ) and the respective slope: m=k1AV−HABA3/(k−1AV−HABA4∙konB) . The exponential decays were analyzed by the method of Foss. There was no departure from simple first order decay in the relaxation, justifying the use of the following model and equations.

The target of test [2] is T1, avidin (AV). The experiment in a line: HABA association reaction for AV (stopped-flow absorbance at 500 nm). In kind it is binding. The note with it: 23°C. The protocol: as §1
These calculations have been described elsewhere and were acquired for the AB1 complexes. The HABA association reaction for AV was carried out under pseudo-first order conditions on a micro absorbance SF instrument equipped with a xenon arc lamp (described above) and a monochromator (model 82–410, Jarrel-Ash, Waltham, Mass.) set at 500 nm.

Test [3] has as its target T1, avidin (AV). The following applies: pH 8; read-out: KD AV-HABA; cited from earlier work.

T1 sequence (P02701 25-152): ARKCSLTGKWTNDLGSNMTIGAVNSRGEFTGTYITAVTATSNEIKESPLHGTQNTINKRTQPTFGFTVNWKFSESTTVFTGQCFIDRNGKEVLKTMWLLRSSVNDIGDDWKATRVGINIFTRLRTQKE

On to `O=C(O)c1ccccc1N=Nc1ccc(O)cc1` [HABA, 2-(4’-hydroxyazobenzene)-benzoic acid], for which the Kd was 12.2 µM at avidin (AV) [1] (from k−1 and k1); 12 µM on avidin (AV) [3]. The “k−1 AV−HABA4, HABA dissociation rate constant of the AV-HABA4 complex” value on avidin (AV) [1] (23°C) is 6.23 ± 0.11 s⁻¹. Moreover, the “k1 AV−HABA3, HABA association rate for the final site” value at avidin (AV) [2] is listed as 5.1 ± 0.1 × 10^5 M^-1s^-1.

The term Kd denotes the constant that tells how readily two partners part at equilibrium.

Values taken from paper PMC6394990, “Detailed characterization of the solution kinetics and thermodynamics of biotin, biocytin and HABA binding to avidin and streptavidin” (PLoS ONE, 2019).
